Peptide text beside a SMILES is read from it. * marks the point of attachment. Palmitoyl = CCCCCCCCCCCCCCCC(=O)*
Tests used:
[1] = tested on: HXB2-mediated cell fusion (HL2/3 effector cells, TZM-b1 target cells); assay type: cell-based, HIV-1
Method: HIV-1 mediated cell fusion inhibition assay: the effector cells (HL2/3 cells) and target cells (TZM-b1 cells) were provided by the AIDS Reagent Program of National Institutes of Health (NIH) (catalog numbers: 1294 and 8129, respectively). The both cells were adherent cells and were cultured in a DMEM cell culture medium containing ampicillin/streptomycin double antibiotics and 10% fetal bovine serum (FBS). The TZM-b1 was first added to a 96-well cell culture plate (1×10^4 cells/well), and cultured overnight at 37° C. and 5% CO2. The test substance was diluted with the DMEM cell culture medium by 3 folds and mixed with HL2/3 effector cells (3×10^4 cells/well), then added to the TZM-b1 target cells, and further cultured for 6 hours to fully fuse. The activity of luciferase (relative fluorescence units, RLU) was then determined using a luciferase reporter gene kit from Promega company according to the instructions. The inhibition rate of each sample at each concentration was calculated, and the half effective inhibitory concentration (IC50 value) was calculated using GraphPad Prism Software 2.01.

[2] = tested on: HIV-1 strain NL4-3 pseudovirus (D36G mutant); assay type: cell-based
Method: (§1) The supernatant was discarded from the wells. […] Inhibition rate (%) and IC50 value were calculated.

[3] = tested on: HIV-1 strain JRCSF; assay type: cell-based
Method: (§2) Inhibition rate (%) and IC50 value were calculated.

[4] = tested on: 35 HIV-1 pseudoviruses (subtypes A, B, B', C, G, A/C, A/E, B/C); conditions: for IC50: read-out: average IC50 for inhibition of various types of HIV-1 pseudoviruses, average over 35 pseudoviruses; for inhibitory activity against different subtypes of HIV-1 as folds of T-20: relative to T-20, from average IC50
From the text: HIV-1 pseudovirus-mediated cell entry inhibition assay: basic steps included: (1) Preparation of HIV-1 pseudovirus: the 293T cells were co-transfected with a plasmid expressing the envelope protein (Env) of HIV-1 strain NL4-3 (i.e., a recombinant expression plasmid obtained by inserting the gene encoding the envelope protein (ENV) of the D36G mutant of the HIV-1 strain NL4-3 in the Table 2 of the Reference 14 listed in the Background Art into the vector pcDNA3.1(−)) and the HIV-1 backbone plasmid pSG3Δenv (provided by the AIDS Reagent Program of National Institutes of Health (NIH), catalog number: 11051) by using a cell transfection reagent, incubated in a cell incubator of 37° C. and 5% CO2 for 6 hours, and then the medium was changed, and the cells were further incubated for 48 hours. The cell culture supernatant containing pseudovirus particles was pipetted and filtered with a 0.45 μm filter to collect the supernatant, then 20% fetal bovine serum (FBS) was added thereto, the final solution was transferred to a polypropylene tube, and stored at −80° C. for ready for use or directly subjected to virus titration. (2) Titration of HIV-1 pseudovirus: the viruses were diluted by 5 folds in a 96-well plate, and 4 replicate wells with 8 gradients were set to a final volume of 100 microliters. The TZM-b1 cells were trypsinized and counted, and the cells were diluted to 1×10^5 cells/ml with DMEM complete medium; 100 μl of cells dilution (containing 15 μg/ml DEAE-dextran) per well were added and cultured at 37° C. and 5% CO2 for 48 hours. The 96-well plate was then taken from the cell culture incubator. The supernatant was discarded from the wells. To each well, 30 μl of a cell lysate was added, and after 10 minutes, 100 μl of a luciferase detection reagent was added. 100 μl of liquid was pipetted from each well and added to a corresponding 96-well white plate, and the luminescence values were read by a microplate photometer. The virus titer was calculated by the Reed-Muench method. (3) Antiviral activity assay: the test substance was dissolved in DMSO and diluted with a cell culture solution by 3 folds, and placed in a 96-well plate at a final volume of […]. 50 μl of a DMEM medium was used in place of the test substance as a negative control. To each well, 100 μl of TZM-b1 target cells solution (containing 15 μg/ml DEAE-dextran) at a concentration of 1×10^5 cells/ml was added, and then 50 μl (corresponding to 100 TCID50 per well) of the HIV-1 pseudovirus obtained above was added. After incubation at 37° C. and 5% CO2 for 48 hours, the relative light units (RLU) of each well were determined by using a luciferase detection reagent (Promega). Inhibition rate (%) and IC50 value were calculated.
Among them, the A, B and C subtypes were the main viruses causing AIDS epidemic in the world, while B/C and A/E recombinant viruses were the main viruses in China. […] Among the Env expression plasmids used for the preparation of pseudoviral, except that the Env expression plasmids used for preparation of PVO, Du156 and CAP 210.2.00.E8 were obtained from the AIDS Reagent Program of NIH in the United states, other plasmids were preserved by the laboratory of Prof. He Yuxian, Institute of Pathogen Biology, Chinese Academy of Medical Sciences, please see the References 13, 14 and 18 listed in the Background Art and articles of Chong et al. (Chong H, Yao X, Zhang C, Cai L, Cui S, Wang Y, He Y. Biophysical property and broad anti-HIV activity of Albuvirtide, a 3-maleimimidoproprotionic acid-modified peptide fusion inhibitor. PLoS One, 2012; 7 (3): e 32599). The preparation of the pseudovirus and the antiviral assay were the same as those in Example 2.1 of Example 2 (HIV-1 pseudovirus-mediated cell entry inhibition assay).

[5] = tested on: NL4-3 pseudovirus carrying T-20 resistance mutation site of NHR; assay: inhibition of T-20 resistant strains; assay type: cell-based, HIV-1; conditions: strains with single or double mutations
[6] = tested on: HIV-2 strain ROD (infectious); assay: inhibition of HIV-2; assay type: cell-based; conditions: HIV-2 ROD
Method: as §2
(§3) In order to further reflect the antiviral advantages of the potent lipopeptides of the present invention, their inhibitory activity against HIV-2 and SIV was determined in the example. The methods of antiviral activity assays used were described in the literatures published by the present inventors (see the References 13 and 30 listed in the Background Art). The molecular cloning plasmid pROD of the HIV-2 strain ROD (HIV-2ROD) was kindly provided by Professor Nuno Taveira from the University of Lisbon, Portugal, and the plasmids expressing the SIV strain SIVpbj (SIVPBJ) and SIV239 envelope proteins (pSIVpbj-Env and pSIV239, respectively) were kindly provided by Professor Xu Jianqing from the Fudan University. The preparation of the infectious ROD was the same as that of the infectious JRCSF in the above section 2.1, and the pseudoviruses SIVpbj and SIV239 were prepared by a method same as that described in the above Examples 2 and 3.

[7] = tested on: SIV pseudoviruses SIVpbj and SIV239; assay: inhibition of SIV pseudoviruses; assay type: cell-based
Method: as §1, §3

[8] = target: N39 (NHR-derived polypeptide of gp41) (Human immunodeficiency virus type 1 group M subtype B, UniProt P04578); assay type: binding, HIV-1; conditions: 10 μM each, PBS pH 7.2
Method: (§4) The circular dichroism spectrophotometer was Jasco-815 by JASCO Inc., and the assay method was referred to the papers published by the inventors (see the References 18 and 30 listed in the Background Art). […] The N39 and an inhibitor were separately dissolved in a phosphate buffered saline (PBS) to prepare a PBS solution (pH 7.2) of a concentration of 20 μM. The N39 was mixed with an inhibitor at a volume ratio of 1:1 (final concentration of 10 μM for each), the mixed sample was placed at 37° C. for 30 minutes to fully react, and then the helix content and Tm value of the resultant complex were measured by the circular dichroism spectrophotometer. The scan wavelength range of the device was 195-260 nm with a wavelength interval of 1 nm, and the values measured by scanning for three times were averaged. Based on the CD signals, the interaction between the polypeptides and the helix content were determined. Then, the sample for CD signal measurement was transferred to the temperature scanning sample cell, the program of the CD device was set to temperature scanning with a detection wavelength of 220 nm and scanning range of 20-98° C., and the program scan was performed to obtain the curve of the CD signals vs temperature, based on which the Tm value was calculated. Based on the Tm value, the stability of the formed helical structure of the inhibitor and N39 was judged.

[9] = circular dichroism secondary structure analysis of the inhibitors themselves; assay type: physicochemical; conditions: 10 μM, 20 μM and 40 μM in PBS
Method: as §4
For easy analysis, the α-helix content and the Tm value of the inhibitors were measured at concentrations of 10 μM, 20 μM, and 40 μM (PBS solution), respectively.

N39 (NHR-derived polypeptide of gp41), sequence (P04578 528-566): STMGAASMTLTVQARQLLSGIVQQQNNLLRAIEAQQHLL

CCCCCCCCCCCCCCCC(=O)NCCCC[C@H](NC(=O)[C@H](CCC(=O)O)NC(=O)[C@H](CC(C)C)NC(=O)[C@H](CCCCN)NC(=O)[C@H](CCCCN)NC(=O)[C@H](CC(C)C)NC(=O)[C@H](CCC(=O)O)NC(=O)[C@H](CCC(=O)O)NC(=O)[C@H](CCC(=O)O)NC(=O)[C@H](CC(N)=O)NC(=O)[C@H](CCCCN)NC(=O)[C@H](CCCCN)NC(=O)[C@H](CCC(N)=O)NC(=O)[C@H](CCC(N)=O)NC(=O)[C@H](CCC(=O)O)NC(=O)[C@H](CCC(=O)O)NC(=O)[C@H](CO)NC(=O)[C@H](CCCCN)NC(=O)[C@H](CCCCN)NC(=O)[C@@H](NC(=O)[C@H](CC(C)C)NC(=O)[C@H](CCC(=O)O)NC(=O)[C@H](CCC(=O)O)NC(=O)[C@@H](NC(=O)[C@H](CC(C)C)NC(=O)[C@H](CO)NC(=O)[C@@H](NC(=O)[C@H](Cc1ccc(O)cc1)NC(C)=O)[C@@H](C)O)[C@@H](C)CC)[C@@H](C)CC)C(N)=O [LP-50] (Ac-YTSLIEELIKKSEEQQKKNEEELKKLEK(Palmitoyl)-NH2)
IC50 ([1]; HXB2-cell fusion, read-out: IC50 for inhibiting cell fusion): 0.021 nM | inhibitory activity as folds of that of T-20 ([1]; HXB2-mediated cell fusion, relative to T-20): 1151 folds | inhibitory activity as folds of that of LP-40 ([1]; cell fusion, relative to LP-40): 20 folds | IC50 ([2]; Entry of NL4-3 (D36G), read-out: IC50 for inhibiting pseudovirus): 0.007 nM | inhibitory activity as folds of that of T-20 ([2]; NL4-3 pseudovirus entry, relative to T-20): 1345 folds | inhibitory activity as folds of that of LP-40 ([2]; pseudovirus, relative to LP-40): 63 folds | inhibitory activity as folds of that of T-20 ([3]; JRCSF replication, relative to T-20): 226 folds | IC50 ([3]; Replication of JRCSF, read-out: IC50 for inhibiting replicative virus): 0.023 nM | inhibitory activity as folds of that of LP-40 ([3]; replicative virus, relative to LP-40): 12 folds | IC50 [4]: 0.041 nM | inhibitory activity against different subtypes of HIV-1 as folds of T-20 [4]: 1010 folds | inhibitory activity against T-20 resistant strains (in words) [5]: further improved by hundreds or even thousands of folds | inhibitory activity against HIV-2 (in words) [6]: extremely potent inhibitory activity | inhibitory activity against SIV (in words) [7]: extremely potent inhibitory activity | Tm value of the complex with N39 [8]: 63.3 °C | secondary structure of the inhibitor itself (in words) [9]: distinct helical structure

CCCCCCCCCCCCCCCC(=O)NCCCC[C@H](NC(=O)[C@H](CCC(=O)O)NC(=O)[C@H](CC(C)C)NC(=O)[C@H](CCCCN)NC(=O)[C@H](CCCCN)NC(=O)[C@H](CC(C)C)NC(=O)[C@H](CCC(=O)O)NC(=O)[C@H](CCC(=O)O)NC(=O)[C@H](CCC(=O)O)NC(=O)[C@H](CC(N)=O)NC(=O)[C@H](CCCCN)NC(=O)[C@H](CCCCN)NC(=O)[C@H](CCC(N)=O)NC(=O)[C@H](CCC(N)=O)NC(=O)[C@H](CCC(=O)O)NC(=O)[C@H](CCC(=O)O)NC(=O)[C@H](C)NC(=O)[C@H](CCCCN)NC(=O)[C@H](CCCCN)NC(=O)[C@H](CC(C)C)NC(=O)[C@H](CC(C)C)NC(=O)[C@H](CCC(=O)O)NC(=O)[C@H](CCC(=O)O)NC(=O)[C@@H](NC(C)=O)[C@@H](C)CC)C(N)=O [LP-65] (Ac-IEELLKKAEEQQKKNEEELKKLEK(Palmitoyl)-NH2)
IC50 [4]: 0.052 nM | inhibitory activity against different subtypes of HIV-1 as folds of T-20 [4]: 796 folds | inhibitory activity against T-20 resistant strains (in words) [5]: much lower active against T-20 resistant mutant strains than the LP-52 and LP-80 | inhibitory activity against HIV-2 (in words) [6]: extremely potent inhibitory activity | inhibitory activity against SIV (in words) [7]: extremely potent inhibitory activity | Tm value of the complex with N39 [8]: 72.1 °C | helix content of the complex with N39 [8]: 63%

CCCCCCCCCCCCCCCC(=O)NCCCC[C@H](NC(=O)[C@H](CCCCN)NC(=O)[C@H](CC(C)C)NC(=O)[C@H](CCC(=O)O)NC(=O)[C@H](CCC(=O)O)NC(=O)[C@H](CCC(=O)O)NC(=O)[C@H](CC(N)=O)NC(=O)[C@H](CCCCN)NC(=O)[C@H](CCCCN)NC(=O)[C@H](CCC(N)=O)NC(=O)[C@H](CCC(N)=O)NC(=O)[C@H](CCC(=O)O)NC(=O)[C@H](CCC(=O)O)NC(=O)[C@H](C)NC(=O)[C@H](CCCCN)NC(=O)[C@H](CCCCN)NC(=O)[C@H](CC(C)C)NC(=O)[C@H](CC(C)C)NC(=O)[C@H](CCC(=O)O)NC(=O)[C@H](CCC(=O)O)NC(=O)[C@@H](NC(=O)[C@H](CCCCN)NC(=O)[C@H](CCC(N)=O)NC(=O)[C@H](CCC(=O)O)NC(=O)[C@H](Cc1c[nH]c2ccccc12)NC(C)=O)[C@@H](C)CC)C(N)=O [LP-55] (Ac-WEQKIEELLKKAEEQQKKNEEELKK(Palmitoyl)-NH2)
inhibitory activity against HXB2-cell fusion (in words) ([1]; compared with template LP-52): essentially unchanged | decrease of inhibitory activity against NL4-3 infection ([2]; compared with template LP-52): about 2 fold | decrease of inhibitory activity against JRCSF infection ([3]; compared with template LP-52): about 2 fold | IC50 [4]: 0.034 nM | inhibitory activity against different subtypes of HIV-1 as folds of T-20 [4]: 1218 folds | inhibitory activity against T-20 resistant strains (in words) [5]: much lower active against T-20 resistant mutant strains than the LP-52 and LP-80 | inhibitory activity against HIV-2 (in words) [6]: significantly affected the activity | inhibitory activity against SIV (in words) [7]: significantly affected the activity | Tm value of the complex with N39 [8]: 63.1 °C

— patent publication US11680086B2, “Lipopeptide for potently inhibiting HIV, derivative thereof, pharmaceutical composition thereof and use thereof” (Institute of Pathogen Biology, Chinese Academy of Medical …, priority 2017, dated 2023)
